Reference: US9351980B2, “Di-aspirin derivatives” (The University of Wolverhampton, priority 2010, dated 2016)

Columns and labels:
MAC13 tumour = test: Tumour volume in MAC 13 tumour bearing mice; type: in vivo; conditions: MAC13 tumour bearing NMRI mice, 1 mg/kg dissolved in PBS (FIG. 7)
Description: NMRI mice were treated with MAC13 cells (5×10^6) sub cut in their flanks (Hussey H J, Bibby […]; British J. of Cancer, 73, 1187-1192, 1996), were treated with example compounds. Once the tumour was established the tumour was dissected and small fragments re-transplanted into more mice. […] The mice were monitored daily-weight, food and water consumption and tumour size was recorded using calipers. The experiment ended when the control mouse tumours started to ulcerate.

[1] = human subjects given analgesic doses of aspirin; cited from earlier work
colorectal cells = conditions: previously reported; cited from earlier work
[2] = system: SW480 colon carcinoma cell line, HCT-116 colon cancer cell line, MDA-231MB breast cancer cell line; test: MTT titration assay (cell viability, 24 hours) on colon versus breast cancer cell lines; type: cell-based
Description: In the examples, assays mentioned are standard cytotoxicity assays and cell cultures used are prepared under standard conditions. The MTT assay referred to is MTT [3-(4,5-Dimethylthiazol-2-yl)-2,5-diphenyltetrazolium-bromide] assay (Mosmann T; J Immunol Methods 65: 55-63, 1983).
In FIG. 2, the in vitro toxicity of BCS, compound 508 of table 1, was investigated in further detail by titration against the SW480 colon carcinoma cell line and the DNA mismatch repair deficient HCT-116 colon cancer cell line and the MDA-231MB breast cancer cell line again utilising the MTT assay as described previously. The concentration-effect relationship for the three different cells lines is given in FIG. 2 (error bars indicate mean+/−S.D.). All experiments were performed in triplicate. For clarity, carrier molecule (DMSO) toxicity of the equivalent concentration utilised is also shown.

SW480 cell line = test: MTT in vitro cytotoxicity assay on SW480 cells; type: cell-based
Description: The MTT assay was utilised with a 24 hour incubation period of cell exposure to the compound. […] Experiments were carried out in triplicate; error bars indicate standard deviation.
The carrier molecule utilised (DMSO) in these experiments to prepare stock solutions was buffered with Tris-HCl buffer pH8.0 (0.5M) to mitigate against any pH changes caused by the addition of compounds to cell culture medium. All data shown were normalised to cells exposed only to buffered carrier molecule.
The result shown is the average of three independent experiments (error bars indicate mean+/−SEM). For comparative purposes, compound toxicity is shown alongside the equivalent concentration of salicylic acid (SA) and aspirin (as tested using the MTT assay with a 72 hour incubation of SW480 cells with compound). The carrier molecule utilised in these experiments was DMSO (dimethyl sulphoxide); all data shown were normalised to cells exposed only to carrier molecule.

| Structure (SMILES) | tumour growth (MAC13 tumour) | salicylate levels achievable in serum [1] [mM] | toxicity to colorectal cells in vitro (colorectal cells) | specific toxicity to colorectal cancer cells ([2]; MTT titration, 24 hours, SW480, HCT-116 versus MDA-231MB) | selectivity for SW480 compared with MDA-231-MB cells ([2]; cell viability assay, colon carcinoma versus breast cancer-derived cell line) | toxicity in comparison to aspirin (SW480 cell line; MTT assay, equivalent concentration of aspirin (FIG. 3, 48 hour incubation)) | specificity against the cell line derived from a colon cancer (SW480 cell line; SW480 versus MCF-7 and U373MG (FIG. 1), MTT) |
| --- | --- | --- | --- | --- | --- | --- | --- |
| O=C(/C=C/C(=O)Oc1ccccc1C(=O)O)Oc1ccccc1C(=O)O [Compound 517, fumaroyldiaspirin] | decrease in tumour growth |  |  |  |  |  |  |
| CC(=O)Oc1ccccc1C(=O)O [Aspirin, acetylsalicylic acid] |  | > 1 | exhibit toxicity |  |  |  |  |
| O=C(CCC(=O)Oc1ccccc1C(=O)O)Oc1ccccc1C(=O)O [Compound 508, bis(2-carboxyphenyl) succinate] | decrease in tumour growth |  |  | specifically toxic to colorectal cancer cells | significantly more toxic to SW480 colorectal cancer cells than to MDA-231-MB cells | more toxic in comparison to aspirin | retains a degree of specificity |
